The subject of this assay is BDF1 mice, B16 melanoma ip, median survival T/C. Kind of assay: NCI In Vivo Anticancer Drug Screen. Data for tumor model B16 Melanoma (intraperitoneal) in B6D2F1 (BDF1) mice. The settings on record: endpoint: median survival time, higher = longer survival. Summed up:
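Tumor-bearing mice received test compound or vehicle. Survival or tumor size was then measured in both groups. The treated-group figure was divided by the control-group figure.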

Setting [1] is: dose: 3.13 mg/kg/injection, schedule: Q01DX009 (ip), vehicle: saline with Tween-80.
The mark [2] stands for this setting: dose: 6.25 mg/kg/injection, schedule: Q01DX009 (ip), vehicle: saline with Tween-80.
The mark [3] stands for this setting: dose: 25.0 mg/kg/injection, schedule: Q01DX009 (ip), vehicle: saline with Tween-80.
The mark [4] stands for this setting: dose: 0.75 mg/kg/injection, schedule: Q01DX009 (ip), vehicle: Klucel (hydroxypropylcellulose) (HPC).
Where [5] appears, read: dose: 1.5 mg/kg/injection, schedule: Q01DX009 (ip), vehicle: Klucel (hydroxypropylcellulose) (HPC).
The mark [6] stands for this setting: dose: 25.0 mg/kg/injection, schedule: Q01DX009 (ip), vehicle: Klucel (hydroxypropylcellulose) (HPC).
Setting [7] is: dose: 50.0 mg/kg/injection, schedule: Q01DX009 (ip), vehicle: Klucel (hydroxypropylcellulose) (HPC).
Where [8] appears, read: dose: 50.0 mg/kg/injection, schedule: Q01DX009 (ip), vehicle: saline with Tween-80.
Where [9] appears, read: dose: 100.0 mg/kg/injection, schedule: Q01DX009 (ip), vehicle: Klucel (hydroxypropylcellulose) (HPC).
The mark [10] stands for this setting: dose: 100.0 mg/kg/injection, schedule: Q01DX009 (ip), vehicle: saline with Tween-80.
[11] abbreviates: dose: 100.0 mg/kg/injection, schedule: Q04DX003 (ip), vehicle: saline with Tween-80.
Where [12] appears, read: dose: 12.5 mg/kg/injection, schedule: Q01DX009 (ip), vehicle: saline with Tween-80.
The mark [13] stands for this setting: dose: 8.0 mg/kg/injection, schedule: Q01DX009 (ip), vehicle: saline.
The mark [14] stands for this setting: dose: 200.0 mg/kg/injection, schedule: Q01DX009 (ip), vehicle: saline.
Setting [15] is: dose: 400.0 mg/kg/injection, schedule: Q01DX009 (ip), vehicle: saline.
Setting [16] is: dose: 200.0 mg/kg/injection, schedule: Q01DX009 (ip), vehicle: Klucel (hydroxypropylcellulose) (HPC).

The values below come from PubChem BioAssay AID192 (DTP/NCI, 2004).

“And” between values parts separate entries of the source, which are not always exact repeats. Equal entries are not always repeated. Toxic doses and inconclusive results are not listed.

Regarding `CC(=O)OC1CCC2(C)C(CCC3C2C(=O)C(OC(C)=O)C2(C)C3CC3OC4(CCC(C)CO4)C(C)C32)C1` (stereo not drawn), the T/C (dose: 1.56 mg/kg/injection, schedule: Q01DX009 (ip), vehicle: saline with Tween-80) is 98 % of control; the T/C under setting [1] is 108 % of control; the T/C under setting [2] is 91 % of control and 93 % of control; the T/C under setting [3] was 89 % of control.
As for `Cc1cc(O)c2c(c1O)C(=O)c1cccc(O)c1C2=O`, the T/C was 92 % of control under setting [4] and 87 % of control under setting [5].
As to `CCc1c(CC(=O)O)c2cc(C)ccc2n1Cc1ccc(Cl)cc1`, the T/C reads like this: (dose: 3.12 mg/kg/injection, schedule: Q01DX009 (ip), vehicle: Klucel (hydroxypropylcellulose) (HPC)) 110 % of control and 119 % of control; (dose: 6.25 mg/kg/injection, schedule: Q01DX009 (ip), vehicle: Klucel (hydroxypropylcellulose) (HPC)) 106 % of control and 114 % of control; (dose: 12.5 mg/kg/injection, schedule: Q01DX009 (ip), vehicle: Klucel (hydroxypropylcellulose) (HPC)) 91 % of control and 111 % of control; under setting [6], 88 % of control and 106 % of control and 97 % of control; under setting [3], 97 % of control; under setting [7], 101 % of control and 104 % of control and 105 % of control. In addition, the T/C runs as follows: under setting [8], 97 % of control; (dose: 50.0 mg/kg/injection, schedule: Q04DX003 (ip), vehicle: saline with Tween-80) 104 % of control; under setting [9], 88 % of control and 95 % of control and 90 % of control; under setting [10], 88 % of control; under setting [11], 88 % of control.
For the compound `Cc1ccc(Cl)cc1NC(=O)CCl`, the T/C is 102 % of control under setting [3], 100 % of control under setting [8] and 102 % of control under setting [10].
With `CCOC(=O)C(Cc1ccc(Cl)c(Cl)c1)(Cc1ccc(Cl)c(Cl)c1)C(=O)OCC`, the T/C is, setting by setting: under setting [12], 99 % of control; under setting [3], 97 % of control; under setting [8], 94 % of control.
`COC(=O)Nc1cccc(-c2nc3ccc(NC(=O)OC)cc3c(=O)n2-c2ccccc2)c1`: the T/C (dose: 8.0 mg/kg/injection, schedule: Q01DX009 (ip), vehicle: Klucel (hydroxypropylcellulose) (HPC)) is 107 % of control; the T/C under setting [13] was 112 % of control; the T/C (dose: 16.0 mg/kg/injection, schedule: Q01DX009 (ip), vehicle: Klucel (hydroxypropylcellulose) (HPC)) is 107 % of control; the T/C (dose: 50.0 mg/kg/injection, schedule: Q04DX005 (ip), vehicle: other) was 112 % of control; the T/C (dose: 50.0 mg/kg/injection, schedule: Q04DX006 (ip), vehicle: saline) is 117 % of control; the T/C (dose: 64.0 mg/kg/injection, schedule: Q01DX009 (ip), vehicle: saline) is 123 % of control. Also, the T/C is, setting by setting: (dose: 100.0 mg/kg/injection, schedule: Q04DX005 (ip), vehicle: other) 120 % of control; (dose: 100.0 mg/kg/injection, schedule: Q04DX005 (oral), vehicle: saline) 99 % of control; (dose: 200.0 mg/kg/injection, schedule: Q04DX005 (oral), vehicle: saline) 97 % of control; (dose: 400.0 mg/kg/injection, schedule: Q04DX005 (oral), vehicle: saline) 114 % of control.
Regarding `CC(C)C[CH2][Pb]([Cl])([CH2]CC(C)C)[CH2]CC(C)C`, the T/C runs as follows: (dose: 0.06 mg/kg/injection, schedule: Q01DX009 (ip), vehicle: saline) 95 % of control; (dose: 0.12 mg/kg/injection, schedule: Q01DX009 (ip), vehicle: Klucel (hydroxypropylcellulose) (HPC)) 100 % of control; (dose: 0.12 mg/kg/injection, schedule: Q01DX009 (ip), vehicle: saline) 104 % of control; (dose: 0.25 mg/kg/injection, schedule: Q01DX009 (ip), vehicle: saline) 96 % of control; (dose: 0.5 mg/kg/injection, schedule: Q01DX009 (ip), vehicle: Klucel (hydroxypropylcellulose) (HPC)) 93 % of control; (dose: 0.5 mg/kg/injection, schedule: Q01DX009 (ip), vehicle: saline) 100 % of control. Also, the T/C was 89 % of control (dose: 1.0 mg/kg/injection, schedule: Q01DX009 (ip), vehicle: Klucel (hydroxypropylcellulose) (HPC)); 104 % of control (dose: 1.0 mg/kg/injection, schedule: Q01DX009 (ip), vehicle: saline); 101 % of control (dose: 2.0 mg/kg/injection, schedule: Q01DX009 (ip), vehicle: saline); 98 % of control (dose: 4.0 mg/kg/injection, schedule: Q01DX009 (ip), vehicle: saline); 94 % of control under setting [13].
With `O=C(O)CSC(CC(=O)O)C(=O)O` (stereo not drawn), the T/C under setting [14] was 106 % of control and the T/C under setting [15] is 106 % of control.
Turning to `ClCCN(CCCl)CCCN1c2ccccc2Sc2ccccc21`, the T/C was 109 % of control (dose: 3.12 mg/kg/injection, schedule: Q04DX003 (ip), vehicle: saline with Tween-80) and 97 % of control (dose: 6.25 mg/kg/injection, schedule: Q04DX003 (ip), vehicle: saline with Tween-80).
As to `CC1C=CCC(C)(C)C1` (stereo not drawn), the T/C is, setting by setting: (dose: 50.0 mg/kg/injection, schedule: Q01DX009 (ip), vehicle: other) 96 % of control; under setting [9], 111 % of control; (dose: 100.0 mg/kg/injection, schedule: Q01DX009 (ip), vehicle: other) 92 % of control; (dose: 100.0 mg/kg/injection, schedule: Q04DX003 (ip), vehicle: saline) 88 % of control; under setting [16], 104 % of control; (dose: 200.0 mg/kg/injection, schedule: Q04DX003 (ip), vehicle: saline) 97 % of control. Also, the T/C runs as follows: (dose: 400.0 mg/kg/injection, schedule: Q01DX009 (ip), vehicle: Klucel (hydroxypropylcellulose) (HPC)) 105 % of control; (dose: 400.0 mg/kg/injection, schedule: Q04DX003 (ip), vehicle: saline) 90 % of control.
Regarding `CC/C(C)=C1\OC(=O)C(C)C(O)C(Cc2cccnc2)NC(=O)C(NC(=O)c2ncccc2O)C(C)OC1=O` (stereo not drawn), the T/C by setting is: under setting [4], 118 % of control; under setting [5], 98 % of control; (dose: 3.0 mg/kg/injection, schedule: Q01DX009 (ip), vehicle: Klucel (hydroxypropylcellulose) (HPC)) 99 % of control; under setting [2], 87 % of control; under setting [12], 97 % of control; under setting [3], 96 % of control.
As for `O=C(O)c1[nH]c(=O)[nH]c(=O)c1N1CCCCC1`, the T/C reads like this: (dose: 25.0 mg/kg/injection, schedule: Q04DX003 (ip), vehicle: Klucel (hydroxypropylcellulose) (HPC)) 110 % of control; (dose: 50.0 mg/kg/injection, schedule: Q04DX003 (ip), vehicle: Klucel (hydroxypropylcellulose) (HPC)) 86 % of control.
Regarding `O=c1[nH]cnc2nc(/N=N/SCCO)[nH]c12`, the T/C under setting [6] was 100 % of control, the T/C under setting [7] is 103 % of control, the T/C under setting [9] was 101 % of control and the T/C under setting [16] is 98 % of control.
For `C1OC1CO[C@@H]1CO[C@H]2[C@@H]1OC[C@H]2OCC1CO1` (stereo partly drawn), the T/C by setting is: (dose: 12.5 mg/kg/injection, schedule: Q01DX009 (ip), vehicle: saline) 94 % of control; (dose: 25.0 mg/kg/injection, schedule: Q01DX009 (ip), vehicle: saline) 94 % of control; under setting [8], 87 % of control; (dose: 50.0 mg/kg/injection, schedule: Q01DX009 (ip), vehicle: saline) 115 % of control; under setting [10], 97 % of control; (dose: 100.0 mg/kg/injection, schedule: Q01DX009 (ip), vehicle: saline) 104 % of control. Further, the T/C under setting [11] is 116 % of control; the T/C under setting [14] is 326 % of control; the T/C (dose: 266.0 mg/kg/injection, schedule: Q04DX003 (ip), vehicle: saline with Tween-80) was 104 % of control; the T/C under setting [15] is 327 % of control; the T/C (dose: 600.0 mg/kg/injection, schedule: Q04DX003 (ip), vehicle: saline with Tween-80) was 109 % of control.
Take `O=C1C2CC=CCC2C(=O)N1SC(Cl)(Cl)Cl` (stereo not drawn): the T/C reads like this: (dose: 0.2 mg/kg/injection, schedule: Q01DX009 (ip), vehicle: saline with Tween-80) 98 % of control; (dose: 0.4 mg/kg/injection, schedule: Q01DX009 (ip), vehicle: saline with Tween-80) 100 % of control; (dose: 0.8 mg/kg/injection, schedule: Q01DX009 (ip), vehicle: saline with Tween-80) 97 % of control; under setting [1], 88 % of control.
